# PubChem BioAssay AID463142 (The Scripps Research Institute Molecular Screening Center, 2010)
# pIC50: −log10 of the molar value.
# Target: Glutathione S-transferase omega-1 (Homo sapiens) (UniProt P78417)
# Assay: GSTO1 inhibitor potency, recombinant enzyme, late-stage follow-up, biochemical, SE-Rh probe, in-gel fluorescence, powder samples, set 2 (AID 463142)
# Settings: recombinant GSTO1, SE-Rh probe labeling
# Glutathione S-transferase omega-1 (Homo sapiens), sequence (P78417 whole entry, looked up): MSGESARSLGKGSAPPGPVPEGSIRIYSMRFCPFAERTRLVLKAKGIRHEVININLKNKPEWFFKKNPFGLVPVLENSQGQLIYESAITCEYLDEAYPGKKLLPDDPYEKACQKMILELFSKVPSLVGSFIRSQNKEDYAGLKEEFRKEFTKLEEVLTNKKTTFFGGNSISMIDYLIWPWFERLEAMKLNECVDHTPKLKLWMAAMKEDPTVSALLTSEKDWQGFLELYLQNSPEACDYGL
smiles,measurement,value
O=C(CCl)N(CCCNC(=O)C(F)(F)F)c1ccc(Cl)cc1,pIC50,7.40
